Values quoted from earlier work, collected in article PMC8513935.

Key:
[1] = derived by the authors as gas->solvent minus gas->water (a hypothetical dry solvent; the ESI), not a two-phase measurement
[2] = log P octanol/water from commercial databases, averaged (the ESI); details: Octanol (wet), 25 C
[3] = experimental, compiled by the authors from the literature (the ESI cites the sources)

SMILES: CCCOCCC
- log K of transfer, water to solvent ([1]; 2-Methylpropan-1-ol, 25 C): 2.16 log10 K
- log K of transfer, water to solvent ([1]; 2-Methylpropan-2-ol, 25 C): 2.13 log10 K
- log K of transfer, water to solvent ([1]; Butan-1-ol, 25 C): 2.13 log10 K
- log K of transfer, water to solvent ([1]; Butan-2-ol, 25 C): 2.14 log10 K
- log K of transfer, water to solvent ([1]; Butanone, 25 C): 2.3 log10 K
- log K of transfer, water to solvent ([1]; CCl4, 25 C): 2.64 log10 K
- log K of transfer, water to solvent ([1]; Dichloromethane, 25 C): 2.78 log10 K
- log K of transfer, water to solvent ([1]; Hexadecane, 25 C): 2.05 log10 K
- log K of transfer, water to solvent ([1]; Hexan-1-ol, 25 C): 2.12 log10 K
- log K of transfer, water to solvent ([1]; Methanol, 25 C): 1.99 log10 K
- log K of transfer, water to solvent ([1]; Octan-1-ol(dry), 25 C): 2.07 log10 K
- log K of transfer, water to solvent ([1]; Perfluoroalkane, 25 C): 1.18 log10 K
- log K of transfer, water to solvent ([1]; Propan-2-ol, 25 C): 2.05 log10 K
- log K of transfer, water to solvent [2]: 2.03 log10 K
- log K of transfer, gas to solvent ([3]; 2-Methylpropan-1-ol, 25 C): 3.06 log10 K
- log K of transfer, gas to solvent ([3]; 2-Methylpropan-2-ol, 25 C): 3.03 log10 K
- log K of transfer, gas to solvent ([3]; Butan-1-ol, 25 C): 3.03 log10 K
- log K of transfer, gas to solvent ([3]; Butan-2-ol, 25 C): 3.04 log10 K
- log K of transfer, gas to solvent ([3]; Butanone, 25 C): 3.2 log10 K
- log K of transfer, gas to solvent ([3]; CCl4, 25 C): 3.54 log10 K
- log K of transfer, gas to solvent ([3]; Dichloromethane, 25 C): 3.68 log10 K
- log K of transfer, gas to solvent ([3]; Hexadecane, 25 C): 2.95 log10 K
- log K of transfer, gas to solvent ([3]; Hexan-1-ol, 25 C): 3.02 log10 K
- log K of transfer, gas to solvent ([3]; Methanol, 25 C): 2.89 log10 K
- log K of transfer, gas to solvent ([3]; Octan-1-ol, 25 C): 2.97 log10 K
- log K of transfer, gas to solvent ([3]; Perfluoroalkane, 25 C): 2.08 log10 K
- log K of transfer, gas to solvent ([3]; Propan-2-ol, 25 C): 2.95 log10 K
- log K of transfer, gas to solvent ([3]; Water, 25 C): 0.9 log10 K

SMILES: CCCCCCCCO
- log K of transfer, water to solvent ([1]; Benzene, 25 C): 2.91 log10 K
- log K of transfer, water to solvent ([1]; Butanone, 25 C): 3.01 log10 K
- log K of transfer, water to solvent ([1]; Butyronitrile, 25 C): 2.69 log10 K
- log K of transfer, water to solvent ([1]; CCl4, 25 C): 2.09 log10 K
- log K of transfer, water to solvent ([1]; Hexadecane, 25 C): 1.62 log10 K
- log K of transfer, water to solvent ([1]; Hexan-1-ol, 25 C): 3.29 log10 K
- log K of transfer, water to solvent ([1]; Methanol, 25 C): 2.89 log10 K
- log K of transfer, water to solvent ([1]; Octan-1-ol(dry), 25 C): 3.03 log10 K
- log K of transfer, water to solvent [2]: 3.07 log10 K
- log K of transfer, gas to solvent ([3]; Benzene, 25 C): 5.91 log10 K
- log K of transfer, gas to solvent ([3]; Butanone, 25 C): 6.01 log10 K
- log K of transfer, gas to solvent ([3]; Butyronitrile, 25 C): 5.69 log10 K
- log K of transfer, gas to solvent ([3]; CCl4, 25 C): 5.09 log10 K
- log K of transfer, gas to solvent ([3]; Hexadecane, 25 C): 4.62 log10 K
- log K of transfer, gas to solvent ([3]; Hexan-1-ol, 25 C): 6.29 log10 K
- log K of transfer, gas to solvent ([3]; Methanol, 25 C): 5.89 log10 K
- log K of transfer, gas to solvent ([3]; Octan-1-ol, 25 C): 6.03 log10 K
- log K of transfer, gas to solvent ([3]; Water, 25 C): 3 log10 K

SMILES: CC(C)=O
- log K of transfer, water to solvent ([1]; 1,2-Dichloroethane, 25 C): 0.3 log10 K
- log K of transfer, water to solvent ([1]; Acetone, 25 C): 0.21 log10 K
- log K of transfer, water to solvent ([1]; Acetonitrile, 25 C): 0.31 log10 K
- log K of transfer, water to solvent ([1]; Benzene, 25 C): -0.05 log10 K
- log K of transfer, water to solvent ([1]; Butan-1-ol, 25 C): -0.26 log10 K
- log K of transfer, water to solvent ([1]; Butanone, 25 C): 0.09 log10 K
- log K of transfer, water to solvent ([1]; CCl4, 25 C): -0.45 log10 K
- log K of transfer, water to solvent ([1]; Chlorobenzene, 25 C): -0.17 log10 K
- log K of transfer, water to solvent ([1]; Chloroform, 25 C): 0.46 log10 K
- log K of transfer, water to solvent ([1]; Cyclohexane, 25 C): -0.948 log10 K
- log K of transfer, water to solvent ([1]; Cyclohexanone, 25 C): -0.041 log10 K
- log K of transfer, water to solvent ([1]; Di-n-butyl ether, 25 C): -0.58 log10 K
- log K of transfer, water to solvent ([1]; Dichloromethane, 25 C): 0.56 log10 K
- log K of transfer, water to solvent ([1]; Diethyl Ether, 25 C): -0.26 log10 K
- log K of transfer, water to solvent ([1]; Ethanol, 25 C): -0.06 log10 K
- log K of transfer, water to solvent ([1]; Hexadecane, 25 C): -1.13 log10 K
- log K of transfer, water to solvent ([1]; Hexane, 25 C): -0.867 log10 K
- log K of transfer, water to solvent ([1]; Methanol, 25 C): 0.06 log10 K
- log K of transfer, water to solvent ([1]; Octan-1-ol(dry), 25 C): -0.52 log10 K
- log K of transfer, water to solvent ([1]; Pentan-1-ol, 25 C): -0.34 log10 K
- log K of transfer, water to solvent ([1]; Propan-2-ol, 25 C): -0.37 log10 K
- log K of transfer, water to solvent ([1]; Tetrahydrofuran, 25 C): 0.02 log10 K
- log K of transfer, water to solvent ([1]; Toluene, 25 C): -0.2 log10 K
- log K of transfer, water to solvent [2]: -0.24 log10 K
- log K of transfer, gas to solvent ([3]; 1,2-Dichloroethane, 25 C): 3.13 log10 K
- log K of transfer, gas to solvent ([3]; Acetonitrile, 25 C): 3.14 log10 K
- log K of transfer, gas to solvent ([3]; Benzene, 25 C): 2.78 log10 K
- log K of transfer, gas to solvent ([3]; Butan-1-ol, 25 C): 2.57 log10 K
- log K of transfer, gas to solvent ([3]; Butanone, 25 C): 2.92 log10 K
- log K of transfer, gas to solvent ([3]; CCl4, 25 C): 2.38 log10 K
- log K of transfer, gas to solvent ([3]; Chlorobenzene, 25 C): 2.66 log10 K
- log K of transfer, gas to solvent ([3]; Chloroform, 25 C): 3.29 log10 K
- log K of transfer, gas to solvent ([3]; Cyclohexane, 25 C): 1.88 log10 K
- log K of transfer, gas to solvent ([3]; Cyclohexanone, 25 C): 2.79 log10 K
- log K of transfer, gas to solvent ([3]; Di-n-butyl ether, 25 C): 2.25 log10 K
- log K of transfer, gas to solvent ([3]; Dichloromethane, 25 C): 3.39 log10 K
- log K of transfer, gas to solvent ([3]; Diethyl Ether, 25 C): 2.57 log10 K
- log K of transfer, gas to solvent ([3]; Ethanol, 25 C): 2.77 log10 K
- log K of transfer, gas to solvent ([3]; Hexadecane, 25 C): 1.7 log10 K
- log K of transfer, gas to solvent ([3]; Hexane, 25 C): 1.96 log10 K
- log K of transfer, gas to solvent ([3]; Methanol, 25 C): 2.89 log10 K
- log K of transfer, gas to solvent ([3]; Octan-1-ol, 25 C): 2.31 log10 K
- log K of transfer, gas to solvent ([3]; Pentan-1-ol, 25 C): 2.49 log10 K
- log K of transfer, gas to solvent ([3]; Propan-2-ol, 25 C): 2.46 log10 K
- log K of transfer, gas to solvent ([3]; Propanone, 25 C): 3.04 log10 K
- log K of transfer, gas to solvent ([3]; Tetrahydrofuran, 25 C): 2.85 log10 K
- log K of transfer, gas to solvent ([3]; Toluene, 25 C): 2.63 log10 K
- log K of transfer, gas to solvent ([3]; Water, 25 C): 2.83 log10 K

SMILES: CC(C)(C)Cl
- log K of transfer, water to solvent ([1]; 1,2-Dichloroethane, 25 C): 3.42 log10 K
- log K of transfer, water to solvent ([1]; 2-Methylpropan-2-ol, 25 C): 2.96 log10 K
- log K of transfer, water to solvent ([1]; Butan-1-ol, 25 C): 2.97 log10 K
- log K of transfer, water to solvent ([1]; CCl4, 25 C): 3.48 log10 K
- log K of transfer, water to solvent ([1]; Chlorobenzene, 25 C): 3.41 log10 K
- log K of transfer, water to solvent ([1]; Cyclohexanone, 25 C): 3.46 log10 K
- log K of transfer, water to solvent ([1]; Diethyl Ether, 25 C): 3.28 log10 K
- log K of transfer, water to solvent ([1]; Hexadecane, 25 C): 3.07 log10 K
- log K of transfer, water to solvent ([1]; Hexane, 25 C): 3.31 log10 K
- log K of transfer, water to solvent ([1]; Propan-2-ol, 25 C): 2.85 log10 K
- log K of transfer, water to solvent ([1]; Tetrahydrofuran, 25 C): 3.3 log10 K
- log K of transfer, water to solvent [2]: 2.58 log10 K
- log K of transfer, gas to solvent ([3]; 1,2-Dichloroethane, 25 C): 2.62 log10 K
- log K of transfer, gas to solvent ([3]; 2-Methylpropan-2-ol, 25 C): 2.16 log10 K
- log K of transfer, gas to solvent ([3]; Butan-1-ol, 25 C): 2.17 log10 K
- log K of transfer, gas to solvent ([3]; CCl4, 25 C): 2.68 log10 K
- log K of transfer, gas to solvent ([3]; Chlorobenzene, 25 C): 2.61 log10 K
- log K of transfer, gas to solvent ([3]; Cyclohexanone, 25 C): 2.66 log10 K
- log K of transfer, gas to solvent ([3]; Diethyl Ether, 25 C): 2.48 log10 K
- log K of transfer, gas to solvent ([3]; Hexadecane, 25 C): 2.27 log10 K
- log K of transfer, gas to solvent ([3]; Hexane, 25 C): 2.51 log10 K
- log K of transfer, gas to solvent ([3]; Propan-2-ol, 25 C): 2.05 log10 K
- log K of transfer, gas to solvent ([3]; Tetrahydrofuran, 25 C): 2.5 log10 K
- log K of transfer, gas to solvent ([3]; Water, 25 C): -0.8 log10 K

SMILES: Cc1cccc(C)n1
- log K of transfer, water to solvent ([1]; Benzene, 25 C): 1.32 log10 K
- log K of transfer, water to solvent ([1]; Chloroform, 25 C): 2.31 log10 K
- log K of transfer, water to solvent ([1]; Cyclohexane, 25 C): 0.67 log10 K
- log K of transfer, water to solvent ([1]; Hexadecane, 25 C): 0.39 log10 K
- log K of transfer, water to solvent [2]: 1.68 log10 K
- log K of transfer, gas to solvent ([3]; Benzene, 25 C): 4.69 log10 K
- log K of transfer, gas to solvent ([3]; Chloroform, 25 C): 5.68 log10 K
- log K of transfer, gas to solvent ([3]; Cyclohexane, 25 C): 4.04 log10 K
- log K of transfer, gas to solvent ([3]; Hexadecane, 25 C): 3.76 log10 K
- log K of transfer, gas to solvent ([3]; Water, 25 C): 3.37 log10 K
